Assay results published in patent publication US20020035061A1, “COMPOSITIONS AND METHODS FOR TREATING INFECTIONS USING CATIONIC PEPTIDES ALONE OR IN COMBINATION WITH ANTIBIOTICS” (priority 1996, published 2002).
Read-outs that look alike come from different tables or passages of the source.

Tests used:
Assay type in all cases: cell-based
E. faecalis = system: E. faecalis
S. epidermidis = S. epidermidis strain SE010
E. faecium = system: E. faecium
E. cloacae = system: E. cloacae
P. aeruginosa = system: P. aeruginosa
S. aureus = system: S. aureus
S. maltophilia = system: S. maltophilia
S. marcescens = system: S. marcescens
A. calcoaceticus = system: A. calcoaceticus
K. pneumoniae = system: K. pneumoniae
E. coli = system: E. coli
bacterial isolates = test: microbe, parasite or virus in culture; settings: combination with Ciprofloxacin

Sequence: ILKKFPFWPWRRK [MBI 11A7CN]
- MIC (E. faecalis; E. faecalis strain EFS001): 2 µg/mL
- MIC (E. faecalis; E. faecalis strain EFS002): 16 µg/mL
- MIC (E. faecalis; E. faecalis strain EFS008): 4 µg/mL
- MIC (S. epidermidis): 4 µg/mL
- MIC (E. faecium; E. faecium strain EFM003): 2 µg/mL
- MIC (E. cloacae; E. cloacae strain ECL007): >128 µg/mL
- MIC (P. aeruginosa; P. aeruginosa strain PA004): >128 µg/mL
- MIC (S. aureus; S. aureus strain SA009): 2 µg/mL
- MIC (S. aureus; S. aureus strain SA014): 4 µg/mL
- MIC (S. aureus; S. aureus strain SA093): 1 µg/mL
- MIC (S. maltophilia; S. maltophilia strain SMA002): 64 µg/mL
- MIC (S. marcescens; S. marcescens strain SMS003): >128 µg/mL
- MIC (A. calcoaceticus; A. calcoaceticus strain AC002): 4 µg/mL
- MIC (K. pneumoniae; K. pneumoniae strain KP001): 8 µg/mL
- MIC (E. coli; E. coli strain ECO005): 8 µg/mL

Sequence: ILKKIPIIPIRRK [MBI 11A2CN]
- MIC (E. faecalis; E. faecalis strain EFS002): >128 µg/mL
- MIC (E. faecium; E. faecium strain EFM003): 16 µg/mL
- MIC (E. cloacae; E. cloacae strain ECL007): >128 µg/mL
- FIC (bacterial isolates; S. aureus SA014): 1.00
- FIC (bacterial isolates; S. aureus SA093): 0.75
- MIC (P. aeruginosa; P. aeruginosa strain PA004): >128 µg/mL
- MIC (S. aureus; S. aureus strain SA004): 8 µg/mL
- MIC (S. maltophilia; S. maltophilia strain SMA001): >128 µg/mL
- MIC (S. marcescens; S. marcescens strain SBS003): >128 µg/mL
- MIC (A. calcoaceticus; A. calcoaceticus strain AC001): >128 µg/mL
- MIC (K. pneumoniae; K. pneumoniae strain KP002): >128 µg/mL
- MIC (E. coli; E. coli strain ECO003): >128 µg/mL

Sequence: ILKKNPNNPNRRK [MBI 11M8]
- MIC (E. faecalis; E. faecalis EFS002): 32 µg/mL
- MIC (E. faecium; E. faecium EFM002): 32 µg/mL
- MIC (S. aureus; S. aureus SA008): 32 µg/mL

Sequence: ILKKPWWPWRRK [MBI 11G3CN]
- MIC (E. faecalis; E. faecalis strain EFS002): 64 µg/mL
- MIC (E. faecium; E. faecium strain EFM002): 32 µg/mL
- MIC (E. cloacae; E. cloacae strain ECL007): >128 µg/mL
- MIC (P. aeruginosa; P. aeruginosa strain PA003): >128 µg/mL
- MIC (S. aureus; S. aureus strain SA009): 8 µg/mL
- MIC (S. maltophilia; S. maltophilia strain SMA001): >128 µg/mL
- MIC (S. marcescens; S. marcescens strain SMS004): >128 µg/mL
- MIC (K. pneumoniae; K. pneumoniae strain KP001): >128 µg/mL
- MIC (E. coli; E. coli strain ECO003): 64 µg/mL

Sequence: ILKKWPWWPWRPMILKKAGS [MBI 11D5CN]
- MIC (E. faecalis; E. faecalis strain EFS002): 16 µg/mL
- MIC (E. faecium; E. faecium strain EFM003): 1 µg/mL
- MIC (E. cloacae; E. cloacae strain ECL007): >64 µg/mL
- MIC (P. aeruginosa; P. aeruginosa strain PA003): >64 µg/mL
- MIC (S. aureus; S. aureus strain SA005): 8 µg/mL
- MIC (S. maltophilia; S. maltophilia strain SMA001): 64 µg/mL
- MIC (S. marcescens; S. marcescens strain SMS004): >64 µg/mL
- MIC (A. calcoaceticus; A. calcoaceticus strain AC001): >64 µg/mL
- MIC (K. pneumoniae; K. pneumoniae strain KP001): >64 µg/mL
- MIC (E. coli; E. coli strain ECO003): 64 µg/mL

Sequence: ILKKWPWWPWRRK [MBI 11E1CN]
- MIC (E. faecalis; E. faecalis strain EFS002): 8 µg/mL
- MIC (E. faecium; E. faecium strain EFM001): 8 µg/mL
- MIC (E. cloacae; E. cloacae strain ECL007): >128 µg/mL
- MIC (P. aeruginosa; P. aeruginosa strain PA003): 128 µg/mL
- MIC (S. aureus; S. aureus strain SA006): 1 µg/mL
- MIC (S. maltophilia; S. maltophilia strain SMA001): 64 µg/mL
- MIC (S. marcescens; S. marcescens strain SMS003): >128 µg/mL
- MIC (A. calcoaceticus; A. calcoaceticus strain AC001): 32 µg/mL
- MIC (K. pneumoniae; K. pneumoniae strain KP002): 39 µg/mL
- MIC (E. coli; E. coli strain ECO003): 8 µg/mL

Sequence: ILKKWPWWPWRRK [MBI 11]
- MIC (E. faecalis; E. faecalis EFS002): 64 µg/mL
- MIC (E. faecium; E. faecium EFM003): 4 µg/mL
- MIC (E. cloacae; E. cloacae ECL007): >128 µg/mL
- MIC (P. aeruginosa; P. aeruginosa PA004): >128 µg/mL
- MIC (S. aureus; S. aureus SA004): 4 µg/mL
- MIC (S. maltophilia; S. maltophilia SMA002): 128 µg/mL
- MIC (S. marcescens; S. marcescens SMS004): >128 µg/mL
- MIC (A. calcoaceticus; A. calcoaceticus AC002): 8 µg/mL
- MIC (K. pneumoniae; K. pneumoniae KP001): 128 µg/mL
- MIC (E. coli; E. coli ECO002): 64 µg/mL

Sequence: ILKKWPWWPWRRKMILKKAGS [MBI 11D4CN]
- MIC (E. faecalis; E. faecalis strain EFS002): 16 µg/mL
- MIC (E. faecium; E. faecium strain EFM002): 1 µg/mL
- MIC (E. cloacae; E. cloacae strain ECL007): >64 µg/mL
- MIC (P. aeruginosa; P. aeruginosa strain PA004): >64 µg/mL
- MIC (S. aureus; S. aureus strain SA009): 4 µg/mL
- MIC (S. maltophilia; S. maltophilia strain SMA001): >64 µg/mL
- MIC (S. marcescens; S. marcescens strain SMS004): >64 µg/mL
- MIC (A. calcoaceticus; A. calcoaceticus strain AC001): >64 µg/mL
- MIC (K. pneumoniae; K. pneumoniae strain KP002): >64 µg/mL
- MIC (E. coli; E. coli strain ECO003): 64 µg/mL
